Reference: patent US20240350643A1, “PROTEIN DEGRADATION AGENT” (SUZHOU KINTOR PHARMACEUTICALS, INC., priority 2021, published 2024)

What was measured:
c-Myc protein = molecular target: T1, c-Myc protein (Homo sapiens, UniProt P01106); assay: Ability of compounds to degrade c-Myc protein in HL60 cells (ELISA); format: cell-based; details: HL-60, 1 μM compound, 24 h, read-out: HL60 cells Protein degradation rate (1 μM)
T1 construct: endogenous in cells; host or cells: HL60 cells

HL60 cells = assay: Anti-proliferation ability of compounds on HL60 cells (CTG); format: cell-based, human; details: Homo sapiens, HL-60, 72 h, 3 days, CellTiter-Glo, read-out: HL60 cells Proliferation inhibitory activity
How it was run: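 HL60 cells (20000/well) exposed to serially diluted compounds (0.1% DMSO vehicle control) for 3 days. Viability read by CellTiter-Glo luminescence; IC50 fitted from inhibition rates.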

T1 sequence (P01106 whole entry): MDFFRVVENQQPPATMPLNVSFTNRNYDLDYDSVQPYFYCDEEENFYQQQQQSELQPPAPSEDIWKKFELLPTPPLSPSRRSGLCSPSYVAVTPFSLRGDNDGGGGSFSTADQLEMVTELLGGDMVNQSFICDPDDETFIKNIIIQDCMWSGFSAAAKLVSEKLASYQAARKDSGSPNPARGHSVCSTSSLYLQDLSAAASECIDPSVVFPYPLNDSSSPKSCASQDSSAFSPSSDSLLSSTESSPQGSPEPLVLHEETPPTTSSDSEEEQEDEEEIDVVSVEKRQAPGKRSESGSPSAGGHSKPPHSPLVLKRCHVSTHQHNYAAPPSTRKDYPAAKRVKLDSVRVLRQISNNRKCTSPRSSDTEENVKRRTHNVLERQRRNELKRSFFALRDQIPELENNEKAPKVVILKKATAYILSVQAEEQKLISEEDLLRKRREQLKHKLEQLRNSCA

| Structure (SMILES) | inhibition at 1 µM (c-Myc protein) | IC50 (HL60 cells) |
| --- | --- | --- |
| COc1cc(CNC(=O)Cn2c3ccccc3c3cccnc32)ccc1CNC(=O)c1ccc2c(c1)C(=O)N(C1CCC(=O)NC1=O)C2=O (stereo not drawn) [A112] | 60 to 90% | 3 ± 0.1 nM |
| COc1cc(CN(C)CCc2cccc3ccccc23)ccc1CNC(=O)c1ccc2c(c1)C(=O)N(C1CCC(=O)NC1=O)C2=O (stereo not drawn) [A113] | 60 to 90% | 4.4 ± 3.2 nM |
| COc1cc(CN(C)CCn2c3ccccc3c3cccnc32)ccc1CNC(=O)c1ccc2c(c1)C(=O)N(C1CCC(=O)NC1=O)C2=O (stereo not drawn) [A114] | 60 to 90% | 6.5 ± 0.3 nM |
| COc1cc(CNC(=O)c2ccc3c(c2)C(=O)N(C2CCC(=O)NC2=O)C3=O)ccc1CNC(=O)Cc1cccc2ccccc12 (stereo not drawn) [A115] | 60 to 90% | 8.6 ± 1.8 nM |
| COc1cc(CNC(=O)c2ccc3c(c2)C(=O)N(C2CCC(=O)NC2=O)C3=O)ccc1CNC(=O)Cn1c2ccccc2c2cccnc21 (stereo not drawn) [A116] | 60 to 90% | 5.5 ± 3.3 nM |
| O=C(Cc1cccc2ccccc12)NCc1ccc(CNC(=O)c2ccc3c(c2)C(=O)N(C2CCC(=O)NC2=O)C3=O)c(C(F)(F)F)c1 (stereo not drawn) [A117] | 60 to 90% | 13.8 ± 4 nM |
| O=C(Cn1c2ccccc2c2cccnc21)NCc1ccc(CNC(=O)c2ccc3c(c2)C(=O)N(C2CCC(=O)NC2=O)C3=O)c(C(F)(F)F)c1 (stereo not drawn) [A118] | 60 to 90% | 18.2 ± 11.4 nM |
| CN(CCc1cccc2ccccc12)Cc1ccc(CNC(=O)c2ccc3c(c2)C(=O)N(C2CCC(=O)NC2=O)C3=O)c(C(F)(F)F)c1 (stereo not drawn) [A119] | 60 to 90% | 44.4 ± 0.3 nM |
| CN(CCn1c2ccccc2c2cccnc21)Cc1ccc(CNC(=O)c2ccc3c(c2)C(=O)N(C2CCC(=O)NC2=O)C3=O)c(C(F)(F)F)c1 (stereo not drawn) [A120] | 60 to 90% | 17.8 ± 4.9 nM |
| O=C(Cc1cccc2ccccc12)NCc1ccc(CNC(=O)c2ccc3c(c2)C(=O)N(C2CCC(=O)NC2=O)C3=O)cc1C(F)(F)F (stereo not drawn) [A121] | 60 to 90% | 6.3 ± 3 nM |
| O=C(Cn1c2ccccc2c2cccnc21)NCc1ccc(CNC(=O)c2ccc3c(c2)C(=O)N(C2CCC(=O)NC2=O)C3=O)cc1C(F)(F)F (stereo not drawn) [A122] | 60 to 90% | 5.9 ± 3.9 nM |
| CN(CCn1c2ccccc2c2cccnc21)Cc1ccc(CNC(=O)c2ccc3c(c2)C(=O)N(C2CCC(=O)NC2=O)C3=O)cc1C(F)(F)F (stereo not drawn) [A123] | 60 to 90% | 35.2 ± 9.3 nM |
| O=C(Cc1cccc2ccccc12)NCc1ccc(CNC(=O)c2ccc3c(c2)C(=O)N(C2CCC(=O)NC2=O)C3=O)nc1 (stereo not drawn) [A124] | 10 to 30% | 1100 ± 295 nM |
| O=C(Cn1c2ccccc2c2cccnc21)NCc1ccc(CNC(=O)c2ccc3c(c2)C(=O)N(C2CCC(=O)NC2=O)C3=O)nc1 (stereo not drawn) [A125] | 60 to 90% | 26.1 ± 2 nM |
| CN(CCc1cccc2ccccc12)Cc1ccc(CNC(=O)c2ccc3c(c2)C(=O)N(C2CCC(=O)NC2=O)C3=O)nc1 (stereo not drawn) [A126] | 60 to 90% | 8.5 ± 0.4 nM |
| CN(CCn1c2ccccc2c2cccnc21)Cc1ccc(CNC(=O)c2ccc3c(c2)C(=O)N(C2CCC(=O)NC2=O)C3=O)nc1 (stereo not drawn) [A127] | 60 to 90% | 3.6 ± 0.1 nM |
| O=C(Cc1cccc2ccccc12)NCc1ccc(CNC(=O)c2ccc3c(c2)C(=O)N(C2CCC(=O)NC2=O)C3=O)cn1 (stereo not drawn) [A128] | 10 to 30% | 2140 ± 788 nM |
| O=C(Cn1c2ccccc2c2cccnc21)NCc1ccc(CNC(=O)c2ccc3c(c2)C(=O)N(C2CCC(=O)NC2=O)C3=O)cn1 (stereo not drawn) [A129] | 60 to 90% | 36.1 ± 13.3 nM |
| CN(CCn1c2ccccc2c2cccnc21)Cc1ccc(CNC(=O)c2ccc3c(c2)C(=O)N(C2CCC(=O)NC2=O)C3=O)cn1 (stereo not drawn) [A130] | 60 to 90% | 4.7 ± 2.3 nM |
| O=C(Cn1c2ccccc2c2cccnc21)NCc1cnc(CNC(=O)c2ccc3c(c2)C(=O)N(C2CCC(=O)NC2=O)C3=O)nc1 (stereo not drawn) [A131] | 60 to 90% | 112 ± 16.5 nM |
| O=C(Cn1c2ccccc2c2cccnc21)NCc1ncc(CNC(=O)c2ccc3c(c2)C(=O)N(C2CCC(=O)NC2=O)C3=O)cn1 (stereo not drawn) [A132] | 10 to 30% | 4210 ± 659 nM |
| O=C(Cc1cccc2ccccc12)NCc1cnc(CNC(=O)c2ccc3c(c2)C(=O)N(C2CCC(=O)NC2=O)C3=O)s1 (stereo not drawn) [A133] | 10 to 30% | 5020 ± 23 nM |
| O=C(Cn1c2ccccc2c2cccnc21)NCc1cnc(CNC(=O)c2ccc3c(c2)C(=O)N(C2CCC(=O)NC2=O)C3=O)s1 (stereo not drawn) [A134] | 60 to 90% | 334 ± 83.5 nM |
| O=C(Cc1cccc2ccccc12)NCc1csc(CNC(=O)c2ccc3c(c2)C(=O)N(C2CCC(=O)NC2=O)C3=O)n1 (stereo not drawn) [A135] | 30 to 60% | 1710 ± 120 nM |
| O=C(Cn1c2ccccc2c2cccnc21)NCc1csc(CNC(=O)c2ccc3c(c2)C(=O)N(C2CCC(=O)NC2=O)C3=O)n1 (stereo not drawn) [A136] | 60 to 90% | 211 ± 45.9 nM |
| O=C(Cc1cccc2ccccc12)NCc1ccc(C2(NC(=O)c3ccc4c(c3)C(=O)N(C3CCC(=O)NC3=O)C4=O)CC2)cc1 (stereo not drawn) [A137] | 60 to 90% | 239 ± 35 nM |
| O=C(Cn1c2ccccc2c2cccnc21)NCc1ccc(C2(NC(=O)c3ccc4c(c3)C(=O)N(C3CCC(=O)NC3=O)C4=O)CC2)cc1 (stereo not drawn) [A138] | 60 to 90% | 12.4 ± 4.4 nM |
